The values that follow come from US20100099737A1, “COMPOSITIONS AND METHODS FOR TREATING MYELOSUPPRESSION” (priority 2006, published 2010).

Format in all cases: cell-based, human
One data set has as its system phospho PKB (Ser 473). Put plainly: Immunoblot of PKB / phospho PKB (Ser 473) in siRNA-transfected TF1 cells stimulated with GM-CSF. The conditions noted are these: vs siNS, FIG. 1F. The text has this: TF1 cells transfected with siSHIP ([…], SEQ ID NO: 11) or siNS were stimulated with the cytokine GM-CSF for the indicated length of time.
Data set [1] has as its system TF1 cells. Put plainly: Survival of siRNA-transfected TF1 cells without growth factors, viable cells by trypan blue exclusion. The settings on record: absence of growth factors, counted daily by trypan blue exclusion, vs siNS, FIG. 1G. The procedure:
(§1) TF1 cells transfected with siSHIP (triangles) or siNS (squares) were cultured in the absence of growth factors and the total number of viable cells counted daily by trypan blue exclusion (FIG. 1G), TF1 cells were cultured in the presence of increasing concentrations of the growth promoting cytokine IL-5, 2 days after siRNA transfection. Proliferation of siSHIP (diamonds) and control siNS (solid diamonds) transfected TF-1 cells was measured by [^3H]-thymidine incorporation (FIG. 1H).

In data set [2] the test system is TF1 cells. Put plainly: Proliferation of siRNA-transfected TF1 cells with IL-5, [3H]-thymidine incorporation. The conditions noted are these: sub-optimal levels of IL-5, 2 days after siRNA transfection, vs siNS, FIG. 1H. The protocol: as §1
Data set [3] deals with TF1 hemopoietic progenitor cell line. The data set can be described thus: Resistance of siRNA-transfected TF1 cells to chemotherapy drugs, [3H]-thymidine incorporation. The settings on record: 4 days after transfection, cisplatin, doxorubicin and taxotere, complete growth media, read 2 days later, vs control siRNA, FIG. 2. The procedure:
The TF1 hemopoietic progenitor cell line was transfected with SHIP1 siRNA or control siRNA as in FIG. 1. After 4 days, the cells were assessed at the indicated concentrations of cisplatin, doxorubicin and taxotere in the presence of complete growth media, [^3H]-thymidine incorporation was measured 2 days later.
For orientation: Dividing cells build labelled thymidine or BrdU into new DNA.

With “siSHIP: siRNA to human SHIP1 mRNA (NM_001017915), position 2437, AAGAGTCAGGAAGGAGAAAAT (SEQ ID NO: 11) (listed as DNA, chemistry not given here)”, in the data set with phospho PKB (Ser 473), the “activation of the PIP3 dependent kinase PKB (phospho PKB Ser 473)” value is on record as “enhanced the activation”. Besides, the “survival (total number of viable cells)” value in the data set on TF1 cells [1] is on record as “considerably increased survival”. Further, the “proliferation ([3H]-thymidine incorporation)” value in the data set on TF1 cells [2] is given as “considerably increased”. In data set [3], the “resistance to chemotherapy drugs ([3H]-thymidine incorporation)” value is listed as “significantly more resistant”.
